Laboratory results from patent US12599560B2, “Lipids and lipid nanoparticle formulations” (Longuide Biopharma Corporation, priority 2023, dated 2026).

Experiments:
[1] = tested on: mice; assay: In vivo delivery of FLuc-mRNA lipid nanoparticle preparations in mice (IVIS imaging); design: In vivo IVIS / In vivo IVIS (liver) / In vivo IVIS (spleen): unit not given here; conditions: Table 4
Protocol: 7. In Vivo Delivery of the Nucleic Acid Lipid Nanoparticle Preparations in Mice After the preparation was completed, the preparation was injected intramuscularly (mice rectus femoris muscle of the thigh) or intravenously (mice tail vein), with approximately 75 μL per mouse, for a total of 3 mice. After a certain time of injection, in vivo imaging (PerkinElmer, IVIS Lumina III) was performed. 10-15 minutes before imaging, 200 μL of 15 mg/mL D-Luciferin working solution was injected intraperitoneally, and the imaging analysis was performed using an in vivo imager.

[2] = Particle size and PDI by dynamic light scattering; type: physicochemical; conditions: Table 4
Protocol: The 7.5 μL nucleic acid lipid nanoparticle solution (containing approximately 0.04 mg/mL mRNA) was taken and added with 200 μL ultrapure water, mixed by gentle blowing using a pipette tip, and the particle size of the nanopreparation was detected by dynamic lightscattering (DLS) using a Malvern Dynamic Light Scattering Instrument (Malvern Instruments Ltd., ZEN3700, UK). 27.5 μL nucleic acid lipid nanoparticle solution (containing about 0.04 mg/mL mRNA) was taken and added with 200 μL ultrapure water. A pipette tip was used to gently blow the sample and mix well. The particle size of the nanopreparation was detected by Malvern Dynamic Light Scattering Instrument (Malvern Instruments Ltd., ZEN3700, UK). After the detection, the sample was recovered to an EP tube, and 600 μL of ultrapure water was added, gently blown with a pipette tip, and the potential of the nanopreparation was measured by a Malvern particle size meter.

Row | Structure (SMILES) | In vivo IVIS ([1]; IM) | In vivo IVIS ([1]; IV) | PDI [2] | Particle size (nm) [2] [nm]
1 | CCCCCCCCCCOC(=O)C(O)CN(Cc1ccc(CN(CC(O)C(=O)OCCCCCCCCCC)CC(O)C(=O)OCCCCCCCCCC)cc1)CC(O)C(=O)OCCCCCCCCCC (stereo not drawn) [Compound L0211] | 1.37 × 10^5 | 1.36 × 10^5 | 0.22 ± 0.00 | 134.47 ± 2.72
2 | CCCCCCCCCCCCOC(=O)C(O)CN[C@H]1CC[C@@H](N(CC(O)C(=O)OCCCCCCCCCCCC)CC(O)C(=O)OCCCCCCCCCCCC)CC1 (stereo partly drawn) [Compound L0212] | 1.40 × 10^7 | 1.38 × 10^8 | 0.18 ± 0.01 | 95.87 ± 0.24
3 | CCCCCCCCCCCCNC(=O)C(O)CN(CC(O)C(=O)NCCCCCCCCCCCC)[C@H]1CC[C@@H](N(CC(O)C(=O)NCCCCCCCCCCCC)CC(O)C(=O)NCCCCCCCCCCCC)CC1 (stereo partly drawn) [Compound L0213] | 2.36 × 10^5 | 3.64 × 10^5 | 0.18 ± 0.01 | 174.43 ± 1.85
4 | CCCCCCCCCCCCNC(=O)C(O)CN(CC(O)C(=O)NCCCCCCCCCCCC)[C@H]1CC[C@H](N(CC(O)C(=O)NCCCCCCCCCCCC)CC(O)C(=O)NCCCCCCCCCCCC)CC1 (stereo partly drawn) [Compound L0214] | 2.46 × 10^5 | 3.60 × 10^5 | 0.21 ± 0.01 | 177.07 ± 1.00
5 | CCCCCCCCCCNC(=O)C(O)CN(Cc1ccc(CN(CC(O)C(=O)NCCCCCCCCCC)CC(O)C(=O)NCCCCCCCCCC)cc1)CC(O)C(=O)NCCCCCCCCCC (stereo not drawn) [Compound L0215] | 2.45 × 10^5 | 4.06 × 10^5 | 0.11 ± 0.01 | 119.27 ± 1.75
6 | CCCCCCCCCCNC(=O)C(O)CN(CC(O)C(=O)NCCCCCCCCCC)[C@H]1CC[C@@H](N(CC(O)C(=O)NCCCCCCCCCC)CC(O)C(=O)NCCCCCCCCCC)CC1 (stereo partly drawn) [Compound L0216] | 3.58 × 10^5 | 2.18 × 10^5 | 0.08 ± 0.02 | 117.97 ± 1.91
7 | CCCCCCCCCCNC(=O)C(O)CN[C@H]1CC[C@@H](N(CC(O)C(=O)NCCCCCCCCCC)CC(O)C(=O)NCCCCCCCCCC)CC1 (stereo partly drawn) [Compound L0217] | 2.97 × 10^6 | 2.87 × 10^7 | 0.09 ± 0.02 | 87.05 ± 0.47
8 | CCCCCCCCCCNC(=O)C(O)CN(CC(O)C(=O)NCCCCCCCCCC)[C@H]1CC[C@H](N(CC(O)C(=O)NCCCCCCCCCC)CC(O)C(=O)NCCCCCCCCCC)CC1 (stereo partly drawn) [Compound L0218] | 8.49 × 10^5 | 5.55 × 10^5 | 0.07 ± 0.02 | 109.43 ± 1.16
9 | CCCCCCCCCCNC(=O)C(O)CN[C@H]1CC[C@H](N(CC(O)C(=O)NCCCCCCCCCC)CC(O)C(=O)NCCCCCCCCCC)CC1 (stereo partly drawn) [Compound L0219] | 2.79 × 10^6 | 8.48 × 10^7 | 0.09 ± 0.01 | 102.47 ± 0.96
10 | CCCCCCOC(C)OCCCCCCOC(=O)C(O)CN1CCN(CCN(CC(O)C(=O)OCCCCCCOC(C)OCCCCCC)CC(O)C(=O)OCCCCCCOC(C)OCCCCCC)CC1 (stereo not drawn) [Compound L0220] | 1.32 × 10^6 | 1.82 × 10^8 | 0.08 ± 0.02 | 106.97 ± 0.21
11 | CC/C=C\CCOCOCCCCCCOC(=O)C(O)CN1CCN(CCN(CC(O)C(=O)OCCCCCCOCOCC/C=C\CC)CC(O)C(=O)OCCCCCCOCOCC/C=C\CC)CC1 (stereo not drawn) [Compound L0221] | 1.85 × 10^5 | 3.94 × 10^5 | 0.07 ± 0.02 | 140.97 ± 1.48
12 | CCCC/C=C\CCOCOCCCCOC(=O)C(O)CN1CCN(CCN(CC(O)C(=O)OCCCCOCOCC/C=C\CCCC)CC(O)C(=O)OCCCCOCOCC/C=C\CCCC)CC1 (stereo not drawn) [Compound L0222] | 4.38 × 10^5 | 7.94 × 10^6 | 0.05 ± 0.01 | 133.83 ± 0.72
